Assays:
Test in all cases: Resazurin viability, 5 days
Type in all cases: cell-based, human
[1] = test system: HCT116+Chr3; settings: HCT116+Chr3, C, Colorectal carcinoma with WT Chr3
Experimental: (§1) Cells were seeded in 96- or 384-well plates and incubated for 3 days for combination experiments or 5 days for single-drug exposure experiments. Resazurin (R7017, SigmaAldrich) was added to a final concentration of 0.01 mg/ml resazurin and fluorescence was measured at ex530/em590 after incubation for 2, 4 or 6 h. Curves were fitted using XLfit software (IDBS) or Prism 8.0 (Graphpad Software), and EC50 values were determined.
(§2) Supplementary Table S1: Effect of OGG1 inhibitors on cancer and non-transformed cell lines.
(§3) Cell lines were incubated with a dilution series of the indicated compounds for 5 days, and viability
(§4) assessed with resazurin. EC50-values were calculated based on the resulting dose -response curves.
(§5) The number of independent experiments is indicated for each value.
(§6) C=cancer;N=non- Disease EC50 n= EC50 n= EC50 n=

[2] = test system: Raji; settings: C, Burkitt's lymphoma
Experimental: as §1, §2, §3, §4, §5, §6

[3] = test system: MRC5; settings: MRC5, N, Non-transformed lung fibroblast
Experimental: as §1, §2, §3, §4, §5, §6

[4] = test system: HT-29; settings: HT-29, C, Colorectal adenocarcinoma
Experimental: as §1, §2, §3, §4, §5, §6

[5] = test system: 786-0; settings: 786-0, C, Kidney adenocarcinoma
Experimental: as §1, §2, §3, §4, §5, §6

[6] = test system: M059J; settings: C, Glioblastoma
Experimental: as §1, §2, §3, §4, §5, §6

[7] = test system: DU145; settings: DU145, C, Prostate carcinoma
Experimental: as §1, §2, §3, §4, §5, §6

[8] = test system: Daudi; settings: C, Burkitt's lymphoma
Experimental: as §1, §2, §3, §4, §5, §6

[9] = test system: MOLT4; settings: MOLT4, C, T-cell acute lymphoblastic leukemia
Experimental: as §1, §2, §3, §4, §5, §6

[10] = test system: H460; settings: H460, C, Large cell lung carcinoma
Experimental: as §1, §2, §3, §4, §5, §6

[11] = test system: KG1a; settings: C, Acute myelogenous leukemia
Experimental: as §1, §2, §3, §4, §5, §6

[12] = test system: U2OS; settings: C, Osteosarcoma
Experimental: as §1, §2, §3, §4, §5, §6

[13] = test system: SW1271; settings: SW1271, C, Small cell lung carcinoma
Experimental: as §1, §2, §3, §4, §5, §6

[14] = test system: Hec59; settings: Hec59, C, Endometrioid adenocarcinoma
Experimental: as §1, §2, §3, §4, §5, §6

[15] = test system: MCF7; settings: MCF7, C, Breast adenocarcinoma
Experimental: as §1, §2, §3, §4, §5, §6

[16] = test system: K562; settings: K562, C, Chronic myelogenous leukemia
Experimental: as §1, §2, §3, §4, §5, §6

[17] = test system: THP1; settings: THP1, C, Acute monocytic leukemia
Experimental: as §1, §2, §3, §4, §5, §6
(§7) transformed (µM) (µM) (µM) […]
THP1 C Acute monocytic leukemia 17.8 4 19.2 2

[18] = test system: Hec59+Chr2; settings: Hec59+Chr2, C, Endometrioid adenocarcinoma with WT Chr2
Experimental: as §1, §2, §3, §4, §5, §6, §7

[19] = test system: NB-4; settings: NB-4, C, Acute promyelocytic leukemia
Experimental: as §1, §2, §3, §4, §5, §6, §7

Cc1cc(NC(=O)N2CCC(n3c(=O)[nH]c4c(Br)cccc43)CC2)ccc1I [TH6943, 4-(4-Bromo-2-oxo-3H-benzimidazol-1-yl)-N-(4-iodo-3-methyl-phenyl)piperidine-1-carboxamide]
EC50 ([1]; Homo sapiens, 120 h): 20.3 µM
EC50 ([2]; Homo sapiens, 120 h): 23.4 µM
EC50 ([3]; Homo sapiens, 120 h): 47.1 µM
EC50 ([4]; Homo sapiens, 120 h): 22 µM
EC50 ([5]; Homo sapiens, 120 h): 33 µM
EC50 ([6]; Homo sapiens, 120 h): 29.4 µM
EC50 ([7]; Homo sapiens, DU-145, 120 h): 3.1 µM
EC50 ([8]; Homo sapiens, 120 h): 12.1 µM
EC50 ([9]; Homo sapiens, MOLT-4, 120 h): 17.4 µM
EC50 ([10]; Homo sapiens, NCI-H460, 120 h): 16.5 µM
EC50 ([11]; Homo sapiens, KG-1a, 120 h): 18.8 µM
EC50 ([12]; Homo sapiens, 120 h): 25.1 µM

O=C(Nc1ccc(Cl)c(Cl)c1)N1CCC(n2c(=O)[nH]c3c(-c4ccc(CO)nc4)cccc32)CC1 [TH5796, N-(3,4-Dichlorophenyl)-4-[4-[6-(hydroxymethyl)-3-pyridyl]-2-oxo-3H-benzimidazol-1-yl]piperidine-1-carbox amide]
EC50 ([1]; Homo sapiens, 120 h): 16.7 µM
EC50 ([2]; Homo sapiens, 120 h): 20.5 µM
EC50 ([3]; Homo sapiens, 120 h): 20.8 µM
EC50 ([4]; Homo sapiens, 120 h): 22.6 µM
EC50 ([5]; Homo sapiens, 120 h): 15.2 µM
EC50 ([6]; Homo sapiens, 120 h): 20.6 µM
EC50 ([7]; Homo sapiens, DU-145, 120 h): 10.7 µM
EC50 ([13]; Homo sapiens, 120 h): 24.6 µM
EC50 ([8]; Homo sapiens, 120 h): 10.1 µM
EC50 ([9]; Homo sapiens, MOLT-4, 120 h): 12.6 µM
EC50 ([10]; Homo sapiens, NCI-H460, 120 h): 14.4 µM
EC50 ([14]; Homo sapiens, 120 h): 11.5 µM
EC50 ([15]; Homo sapiens, 120 h): 26.5 µM
EC50 ([11]; Homo sapiens, KG-1a, 120 h): 18 µM
EC50 ([12]; Homo sapiens, 120 h): 16.1 µM
EC50 ([16]; Homo sapiens, 120 h): 21 µM
EC50 ([17]; Homo sapiens, THP-1, 120 h): 19.2 µM
EC50 ([18]; Homo sapiens, 120 h): 17.3 µM
EC50 ([19]; Homo sapiens, 120 h): 11.5 µM

O=C(Nc1ccc(I)cc1)N1CCC(n2c(=O)[nH]c3c(Br)cccc32)CC1 [TH5487]
EC50 [1]: 20.6 µM
EC50 [2]: 19 µM
EC50 [3]: 42.4 µM
EC50 [4]: 24.5 µM
EC50 [5]: 29.7 µM
EC50 [6]: 26.1 µM
EC50 [7]: 13.2 µM
EC50 [13]: 22 µM
EC50 [8]: 16.6 µM
EC50 [9]: 13.2 µM
EC50 [10]: 10.1 µM
EC50 [14]: 17 µM
EC50 [15]: 23.3 µM
EC50 [11]: 14.3 µM
EC50 [12]: 19.5 µM
EC50 [16]: 16.7 µM
EC50 [17]: 17.8 µM
EC50 [18]: 15.7 µM
EC50 [19]: 4.8 µM
